Patent US7169966B2, “Salicylic acid-binding protein encoding nucleic acid, SABP2, and methods of use thereof” (Boyce Thompson Institute for Plant Research, Inc., priority 2001, dated 2007)

Legend:
SABP2 [1] = target: T1, SABP2 (Nicotiana tabacum, UniProt Q6RYA0); assay: [3H] salicylic acid-binding assay with unlabeled competitors, recombinant His6-SABP2 produced in E. coli; parameters: Full-length tobacco SABP2 was PCR amplified; His6 (N); made in house; host or cells: E. coli BL21 (DE3), vector pET28a; species or system tobacco (Nicotiana tabacum); conditions: for Bound [^3H] SA SABP2: 1 mM unlabeled competitor, protein produced in E. coli, no competitor = 140206 dpm; for inhibition of ^3H-SA binding by unlabeled competitor (in words): large molar excess of unlabeled competitor, recombinant His6-tagged protein; for binding to SABP2 (in words): recombinant, purified SABP2
T1 sequence (Q6RYA0 1-260): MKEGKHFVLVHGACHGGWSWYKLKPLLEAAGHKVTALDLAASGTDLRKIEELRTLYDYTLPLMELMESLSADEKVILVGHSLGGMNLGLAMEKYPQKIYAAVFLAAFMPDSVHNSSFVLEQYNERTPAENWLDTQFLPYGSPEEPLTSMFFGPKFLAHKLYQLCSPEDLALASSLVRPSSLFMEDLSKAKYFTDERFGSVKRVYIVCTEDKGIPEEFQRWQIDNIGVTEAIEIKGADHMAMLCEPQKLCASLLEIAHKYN
Experimental: (§1) [^3H] Salicylic acid-binding assay: The protein extracts/fractions were mixed with 0.1 μM [^3H]-SA (23.6 Ci/mmol) (custom synthesized by NEN Life Science Products) in Buffer A to bring the total volume of the reaction mixture to 150 μl. The extracts were then incubated on ice for 60 minutes. Spin columns were prepared by packing Sephadex G-25 fine (Pharmacia) equilibrated with Buffer A into 1 ml disposable syringe barrels. The G-25 was packed to 1 ml and equilibrated by centrifuging at 1000 g for 4 minutes in a H-1000B rotor (Sorvall) at 4° C. The entire binding mixture was loaded onto the column and centrifuged under similar conditions. Bound [^3H]-SA which is present in the flow through, was mixed with 4 ml scintillation cocktail (Ecolite, ICN) and measured in a liquid scintillation counter. Appropriate controls were also assayed.
Expression of Recombinant SABP2 in E. coli. Full-length tobacco SABP2 was PCR amplified to introduce BamH1 enzyme sites at both ends using the primers F2 ([…]) (SEQ ID NO:51) and F3 ([…]) (SEQ ID NO:52). The amplified product was cloned into the BamH1 site of pET28a (Novagen) and sequenced. Recombinant SABP2 (rSABP2) was synthesized as a soluble protein in E. coli strain BL21 (DE3) and affinity purified by Ni-NTA agarose chromatography (Novagen) as described by the manufacturer. rSABP2 was further purified on a Mono Q column as described earlier.
(§2) To rigorously establish that the 28 KDa protein from plant extract was SABP2, the cloned cDNA was expressed in E. coli as His6-tagged fusion protein and the recombinant protein was purified on a Ni column and tested for SA-binding activity (Table IV).

PR genes = conditions: for induction of PR genes or enhanced disease resistance; cited from earlier work
AtSB2L1 = target: T2, AtSB2L1 (Arabidopsis thaliana, UniProt Q8S8S9); assay: [3H] salicylic acid-binding assay with unlabeled competitors, Arabidopsis homolog produced in E. coli; conditions: 1 mM unlabeled competitor; protein produced in E. coli; no competitor = 70 dpm
T2 construct: made in house
T2 sequence (Q8S8S9 1-263): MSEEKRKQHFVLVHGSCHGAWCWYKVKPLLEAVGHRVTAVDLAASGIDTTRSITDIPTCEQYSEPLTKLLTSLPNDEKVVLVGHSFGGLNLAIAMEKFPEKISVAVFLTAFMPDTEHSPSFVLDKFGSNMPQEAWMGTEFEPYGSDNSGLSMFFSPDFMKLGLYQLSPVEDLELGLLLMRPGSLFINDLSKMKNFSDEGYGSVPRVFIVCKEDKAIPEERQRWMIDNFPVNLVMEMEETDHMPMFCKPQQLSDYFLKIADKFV
Experimental: as §1, §2

AtSB2L5 = target: T3, AtSB2L5 (Arabidopsis thaliana, UniProt Q9LFT6); assay: as above; conditions: 1 mM unlabeled competitor; protein produced in E. coli; no competitor = 12927 dpm
T3 construct: made in house; host or cells: E. coli
T3 sequence (Q9LFT6 1-258): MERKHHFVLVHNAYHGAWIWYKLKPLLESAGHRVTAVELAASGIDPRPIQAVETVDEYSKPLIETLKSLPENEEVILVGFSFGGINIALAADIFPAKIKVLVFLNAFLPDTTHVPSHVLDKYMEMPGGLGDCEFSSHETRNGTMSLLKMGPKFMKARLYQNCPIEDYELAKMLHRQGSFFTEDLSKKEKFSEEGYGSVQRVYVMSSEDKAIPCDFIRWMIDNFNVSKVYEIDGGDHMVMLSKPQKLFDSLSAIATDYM
Experimental: as §1, §2

AtSB2L9 = target: T4, AtSB2L9 (Arabidopsis thaliana, UniProt O23171); assay: as above; conditions: 1 mM unlabeled competitor; protein produced in E. coli; no competitor = 16486 dpm
T4 construct: made in house; host or cells: E. coli
T4 sequence (O23171 1-256): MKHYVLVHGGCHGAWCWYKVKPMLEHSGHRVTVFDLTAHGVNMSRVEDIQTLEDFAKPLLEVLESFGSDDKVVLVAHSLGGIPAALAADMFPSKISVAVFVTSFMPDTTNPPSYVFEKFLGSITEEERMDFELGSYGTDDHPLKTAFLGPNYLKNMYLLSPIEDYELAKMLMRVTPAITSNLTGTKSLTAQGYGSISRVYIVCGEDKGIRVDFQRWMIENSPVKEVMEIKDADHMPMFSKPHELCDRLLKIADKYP
Experimental: as §1, §2

SABP2 [2] = target: T1, SABP2; parameters: from tissue; host or cells: tobacco leaves, partially purified extract; conditions: partially purified plant extracts; more avidly than SA (Du and Klessig, 1997); cited from earlier work
SABP2 expression = assay: Induction of SABP2 expression in plants by chemical treatment; assay type: in vivo, tobacco; conditions: without TMV infection
From the text: Expression studies have been initiated and already indicate that the tobacco SABP2 and one of its putative Arabidopsis ortholog, AtSB2L9, are induced in plants resisting infection by viral [tobacco mosaic virus(TMV) or turnip crinkle virus (TCV)] or bacterial (P. s.) pathogens. These studies can be extended to other plant-pathogen interactions, e.g. P. s. pv tabaci, and P.s. pv tomato with or without AvrPto in tomato or Pto-transformed Nicotiana benthamiana, for SABP2 and P. s. and Peronospora parasitica for AtSB2L5, AtSB2L9, and other putative orthologs in Arabidopsis. […] Therefore, induction of SABP2 and its Arabidopsis ortholog(s) by ethylene can be tested in a similar fashion.

SABP2 [3] = target: T1, SABP2; assay: SA / analog binding to SABP2 isolated from tobacco plant extracts; parameters: from tissue; host or cells: tobacco leaves, partially purified extract
From the text: (§3) SA is a key component in the signal transduction pathway(s) leading to activation of certain defense responses in plants after pathogen attack. Previous studies have identified several proteins, including catalase and ascorbate peroxidase, through which the SA signal might act. A novel nucleic acid molecule encoding the SA-binding protein 2, SABP2, is described herein. SABP2 was identified through the use of a high specific activity ligand, [^3H]-SA (15–30 Ci/mmole). […] For example, SABP2 is much less abundant in leaf tissue than the catalase, and has an apparent native mass (Mr) of between about 20 and 40 kDa, as compared with the native molecular mass of catalase, which is approximately 240 kDa.
(§4) As one example, assays for SA analogues may be based on the ability of analogues to bind SABP2 or to compete with SA for binding to SABP2. […] Since SABP2 is part of the signal transduction pathway leading to disease resistance, it may be possible to enhance induction of disease resistance using analogues of SA which are not readily metabolized by the plants. […] This glucoside is not active for induction of disease resistance.
(§5) [^3H] […] Bound [^3H]-SA which is present in the flow through, was mixed with 4 ml scintillation cocktail (Ecolite, ICN) and measured in a liquid scintillation counter. […]

SABP2 [4] = assay: as above; conditions: fold higher
From the text: as §3, §4, §5

SABP2 [5] = target: T1, SABP2; assay: Lipase activity assay of purified recombinant SABP2 (pNP palmitate / pNP myristate) with or without SA; assay type: biochemical, tobacco; parameters: Full-length tobacco SABP2 was PCR amplified; His6 (N); made in house; host or cells: E. coli BL21 (DE3), vector pET28a
lipase from Mucor meihei = lipase from Mucor meihei (Rhizomucor miehei, UniProt P19515); assay: Lipase activity assay with or without SA, control lipase; assay type: biochemical; conditions: data not shown
Experimental: Since SABP2 contains the catalytic triad and the lipase signature sequence, the recombinant protein was tested for lipase activity. […] Addition of SA to the reaction stimulated lipase activity 3–6 fold (FIG. 6B). This stimulation required SA binding to SABP2, since it was abolished in reaction conditions that prevented SA binding. […] The lipase activity assay was performed as described by Yang et al. with modifications to allow SA binding to SABP2. The standard 1 ml assay mixture consisted of 1 mM substrate in 50 mM Bicine pH 8.0, 0.05% Triton-X100. Following a 60 min preincubation on ice in absence or presence of 1 mM SA, the reaction was allowed to proceed at 24° C. for 60 min. A 100 mM stock solution of p-NPM or p-NPP was prepared in acetonitrile. Lipase activity was estimated colorimetrically (Unicom UV1, Spectronic Unicom, UK) by measuring the liberation of para-nitrophenol from p-NPP or p-NPM at 410 nm. Measurements from control reactions without SABP2 were subtracted from each reaction. For non SA-binding conditions, Tris-HCl pH 8.0 (50 mM) was used in placed of Bicine buffer.

Sequence of lipase from Mucor meihei (P19515 95-363): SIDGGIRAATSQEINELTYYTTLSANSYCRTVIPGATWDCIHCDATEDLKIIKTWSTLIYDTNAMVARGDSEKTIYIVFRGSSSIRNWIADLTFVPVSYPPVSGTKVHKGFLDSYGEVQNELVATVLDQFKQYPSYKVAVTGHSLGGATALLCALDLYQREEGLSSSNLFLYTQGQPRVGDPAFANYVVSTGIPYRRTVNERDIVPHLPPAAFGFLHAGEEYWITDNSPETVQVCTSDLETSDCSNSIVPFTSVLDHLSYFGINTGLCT

Compound	Bound [^3H] SA SABP2 (SABP2 [1])	Bound [^3H] SA AtSB2L1 (AtSB2L1)	Bound [^3H] SA AtSB2L5 (AtSB2L5)	Bound [^3H] SA AtSB2L9 (AtSB2L9)	binding to SABP2 (in words) (SABP2 [1])	affinity of SABP2 for BTH relative to SA (SABP2 [3]; SABP2 isolated from plant extracts, fold greater)	Biological Activity of competitor (PR genes)	inhibition of ^3H-SA binding by unlabeled competitor (in words) (SABP2 [1])	binding of BTH to SABP2 relative to SA (SABP2 [2])	induction of SABP2 expression by treatment alone (SABP2 expression)	affinity of SABP2 for SA relative to that between SA and tobacco catalase (SABP2 [4])	stimulation of SABP2 lipase activity by SA (SABP2 [5]; 1 mM SA, 50 mM Bicine pH 8.0, substrates pNP palmitate, pNP myristate)	stimulation of SABP2 lipase activity by SA under conditions that prevent SA binding (SABP2 [5]; Tris-HCl pH 8.0 (50 mM) in place of Bicine)	SA binding to SABP2 in Tris buffer (in words) (SABP2 [1]; 50 mM bicine replaced with 50 mM Tris-HCl pH 8.0)	stimulation of lipase activity by SA (lipase from Mucor meihei)	Kd (SABP2 [3]; SABP2 from tobacco, reversible binding, read-out: apparent Kd of SA binding to SABP2)
O=C(O)c1c(O)cccc1O [2,6-DHBA, 2,6-dihydroxybenzoic acid]	924 dpm	36 dpm	1742 dpm	1072 dpm	–	–	active	–	–	–	–	–	–	–	–	–
O=C(O)c1ccc(O)cc1 [4-HBA, 4-hydroxybenzoic acid]	95634 dpm	65 dpm	4757 dpm	3620 dpm	only minimal binding	–	inactive	not	–	–	–	–	–	–	–	–
O=C(O)c1ccccc1O [SA, salicylic acid]	160 dpm	42 dpm	121 dpm	36 dpm	–	–	active	inhibited effectively	–	insufficient	100–150 fold	3–6 fold	abolished	does not bind	did not exhibit stimulation	~90 nM

Second part, led by results:

Bound [^3H] SA SABP2 (SABP2 [1])	Bound [^3H] SA AtSB2L1 (AtSB2L1)	Bound [^3H] SA AtSB2L5 (AtSB2L5)	Bound [^3H] SA AtSB2L9 (AtSB2L9)	binding to SABP2 (in words) (SABP2 [1])	affinity of SABP2 for BTH relative to SA (SABP2 [3]; SABP2 isolated from plant extracts, fold greater)	Compound	Biological Activity of competitor (PR genes)	inhibition of ^3H-SA binding by unlabeled competitor (in words) (SABP2 [1])	binding of BTH to SABP2 relative to SA (SABP2 [2])	induction of SABP2 expression by treatment alone (SABP2 expression)	affinity of SABP2 for SA relative to that between SA and tobacco catalase (SABP2 [4])	stimulation of SABP2 lipase activity by SA (SABP2 [5]; 1 mM SA, 50 mM Bicine pH 8.0, substrates pNP palmitate, pNP myristate)	stimulation of SABP2 lipase activity by SA under conditions that prevent SA binding (SABP2 [5]; Tris-HCl pH 8.0 (50 mM) in place of Bicine)	SA binding to SABP2 in Tris buffer (in words) (SABP2 [1]; 50 mM bicine replaced with 50 mM Tris-HCl pH 8.0)	stimulation of lipase activity by SA (lipase from Mucor meihei)	Kd (SABP2 [3]; SABP2 from tobacco, reversible binding, read-out: apparent Kd of SA binding to SABP2)
260 dpm	38 dpm	64 dpm	42 dpm	–	–	O=C(O)c1cc(Cl)ccc1O [5-CSA, 5-chlorosalicylic acid]	active	–	–	–	–	–	–	–	–	–
–	–	–	–	did not bind	approximately 15 fold	c1ccc2snnc2c1 [BTH, benzothiadiazole]	–	–	about 15 fold	insufficient	–	–	–	–	–	–
